In PubChem BioAssay AID624419 (Sanford-Burnham Center for Chemical Genomics, 2012):

Test system: mouse plasma stability, percent remaining
Experiment: stability of compounds in murine plasma, second set, biochemical ADME (AID 624419)
Conditions: at 1 µM

SMILES | plasma stability [%]
COc1ccc(N(C(=O)CCl)C(C(=O)NCCc2ccccc2)c2cccs2)cc1Cl (stereo not given) | 15.3
O=S1(=O)Nc2c(ccc3cccnc23)-c2ccccc21 | 100
CN(C)c1oc(-c2ccc(OCc3ccc(Cl)cc3)cc2)nc1C#N | 91.4
Brc1ccc2c(c1)CN1CCCC1=N2 | 100
O=S(=O)(NC1CCCCC1N1CCOCC1)c1ccc(Cl)cc1 (stereo not given) | 100
COc1ccc(CNCc2cccc3ccccc23)cc1 | 80.5
O=C(CSc1cccc2cccnc12)N1CCCC1 | 100
O=C(c1ccccn1)N(Cc1cccs1)C1(C(=O)NC2CCCCC2)CCCCC1 | 100
COc1cc(NC(=O)c2cc(C3CC3)on2)c(OC)cc1Cl | 42.4
CCc1nnc(NC(=O)c2ccc(NS(=O)(=O)c3ccccc3)cc2)s1 | 97.6
CC[C@H]1CN2CCc3cc(OC)c(OC)cc3[C@@H]2C[C@@H]1C[C@H]1NCCc2cc(OC)c(OC)cc21 | 100
O=[N+]([O-])c1ccc(CN2CCOCCOCCN(Cc3ccc([N+](=O)[O-])cc3)CCOCC2)cc1 | 100
O=C(O)c1ccccc1OCc1ccccc1Br | 100
CCOc1ccc(NC(=S)N2CCC(C(O)(c3ccccc3)c3ccccc3)CC2)cc1 | 73.7
O=C(O)CCC(NS(=O)(=O)c1ccc(-c2ccccc2)cc1)C(=O)O (stereo not given) | 88.8
CCCN1CNc2c(c(=O)[nH]c(=S)n2CCc2ccc(OC)c(OC)c2)C1 | 99.5
Cc1cc(C(=O)CN2C(=O)CCC2=O)c(C)n1Cc1ccccc1 | 98
Cc1ccc(NC(=O)CCC(=O)N/N=C/c2ccc([N+](=O)[O-])o2)cc1C | 73.3
O=C1C2CC=CCC2C(=O)N1c1n[nH]c(-c2ccccc2)n1 (stereo not given) | 52.7
c1ccc(CC2CCN(c3ncnc4sccc34)CC2)cc1 | 100
CC(=O)c1ccc(N2CCN(S(=O)(=O)c3ccc4c(c3)CC(=O)N4)CC2)cc1 | 100
N#C/C(=C\c1ccc([N+](=O)[O-])o1)c1nc2ccccc2[nH]1 | 9.6
Brc1cc2c(cc1C1Nc3ccccc3C3C=CCC31)OCO2 (stereo not given) | 100
CCCN(CCC)CCNC(=O)C1CCN(Cc2nc(-c3ccc(Cl)cc3)oc2C)CC1 | 100
Cc1ccc(C)c(NS(=O)(=O)c2cc(C(=O)Nc3ccccc3-c3ccccc3)ccc2Cl)c1 | 83.4

SMILES | plasma stability [%]
CC1CCCN(C(C(=O)Nc2ccc3c(c2)OCCO3)c2ccccc2)C1 (stereo not given) | 100
O=c1[nH]c2c(s1)C(c1cccnc1)C1C3CCC(C3)C1S2 (stereo not given) | 100
O=C(O)c1cccnc1SCCc1ccccc1 | 100
O=C(COC(=O)C12CC3CC(CC(C3)C1)C2)NCc1ccco1 | 2.35
Cc1ccc(N2CCN(S(=O)(=O)N3CCCCC3)CC2)c(C)c1 | 100
C/C=C/Cn1c(SCCCc2ccccc2)nc2c1c(=O)[nH]c(=O)n2C | 100
CS(=O)(=O)c1ccc(C(=O)OCC(=O)NC23CC4CC(CC(C4)C2)C3)cc1[N+](=O)[O-] | 91.4
O=C1CCCC2=C1C1(CCCC1)N=C(Nc1nc3ccccc3o1)N2 | 100
O=C(CCNS(=O)(=O)c1cccc2nsnc12)N1CCN(c2ccccn2)CC1 | 100
Cc1ccc(C(=O)n2c3ccccc3c3ccccc32)cc1 | 100
COc1ccc(S(=O)(=O)N2CCN(S(=O)(=O)c3ccc4c(c3)OCCO4)CC2)cc1 | 100
Cc1ccnc(NC(=O)CCCOc2cc(=O)n(C)c3ccccc23)c1 | 0.15
CCOC(=O)C(C)Oc1cccc2c(=O)n(CC(=O)Nc3ccc4c(c3)OCCO4)ccc12 (stereo not given) | 0.19
O=C(O)c1ccc(N2C(=O)/C(=C/c3ccc(-c4ccc([N+](=O)[O-])cc4)o3)C=C2c2ccccc2)cc1 | 99.7
O=C1NCCCc2c1oc1ccc(O)cc21 | 97.2
CCCC(=O)Nc1cccc(NC(=O)c2ccccc2Br)c1 | 0.14
CCCc1cc(C(=O)N(C2CCCCC2)C2CCCCC2)no1 | 84
COc1ccc(C2c3c(ncn(CCN4CCOCC4)c3=N)Oc3ccc4ccccc4c32)cc1OC (stereo not given) | 100
CC(C)C(=O)NC(c1ccco1)c1ccc2cccnc2c1O (stereo not given) | 95.2
c1ccc(-c2nnc(N3CCOCC3)nc2-c2ccccc2)cc1 | 100
CCN1CCN(c2nc3ccccc3nc2C(C#N)C(=O)OC2CCCCC2)CC1 (stereo not given) | 15.5
COc1ccccc1N(/N=C1\Sc2ccccc2C1=O)C(C)=O | 4.35
CCCn1ncc(CN2CCCC(C(=O)c3cccc(OC(C)C)c3)C2)c1C (stereo not given) | 96.7
Cc1ccc(S(=O)(=O)NCc2ccc(C(=O)NCCN(Cc3ccccc3)C(C)C)cc2)cc1 | 100

Now from value to molecule:

plasma stability [%] | SMILES
96.4 | c1ccc2c(Nc3nnc(-c4ccncc4)s3)cccc2c1
100 | COc1nc(-c2ccccc2)nnc1-c1ccccc1
93.6 | Cc1cc(C)nc(-n2nc(C)c(Sc3ccc(F)cc3)c2N)n1
73.7 | COc1ccc(S(=O)(=O)n2nc(OC(=O)c3ccccc3)cc2N)cc1
91.3 | Cc1cc(-c2nnc3n2CCCCC3)c(C)n1-c1ccccc1
94.8 | Cc1ccc(C)c(OCCn2cc(C(=O)O)c3ccccc32)c1
73.5 | C=CCn1c(SCC(=O)c2ccc(O)c(O)c2)nnc1-c1ccccc1OC
100 | CCCOc1ccc(-c2nc(OC)c3ccccc3n2)cc1
17 | COC(=O)c1ccccc1NC(=O)c1ccc(F)cc1
87.1 | Cc1cccc(-n2cnc3cc(C(=O)N4CCCCC4)ccc32)c1
100 | Cc1ccccc1N1CCN(c2ncnc3c2cnn3Cc2ccc(Cl)cc2)CC1
97.8 | Cc1ccc(S(=O)(=O)C(c2ccccc2)c2c(C)noc2C)cc1 (stereo not given)
100 | CN(C)c1nc(N)nc(CSc2nnnn2-c2cccc3ccccc23)n1
100 | COc1ccc(CSc2nc(C)cc(=O)[nH]2)cc1
100 | COc1cccc(-c2nc(-c3ccc(NC(=O)Cc4ccccc4OC)cc3)no2)c1
100 | O=C(COc1ccccc1Br)NCCc1nc2ccccc2[nH]1
100 | COc1ccc(OC)c(S(=O)(=O)Nc2cnc3ccccc3c2)c1
91.6 | COc1ccc(Sc2ccc(NC(=O)c3ccccc3Cl)cc2C#N)cc1

plasma stability [%] | SMILES
100 | Cc1ccc(S(=O)(=O)n2c(N)nc3ccccc32)cc1
100 | Cc1ccc(-n2c(N)c(C#N)c(-c3ccccc3)c(C#N)c2=O)cc1
100 | Cc1nc(SCc2nc3ccccc3[nH]2)c2oc3ccccc3c2n1
84.1 | Cn1cnc([N+](=O)[O-])c1Sc1ncnc2nc[nH]c12
81.9 | Cn1nnnc1Sc1ncnc2scc(-c3ccccc3)c12
84.8 | CSc1nc(-c2ccc(C)cc2)nc(C(Cl)Cl)n1
56.7 | CCCc1nc2c(=O)n(C)c(=O)nc-2n(C)n1
82.8 | NC(=O)C1CCN(c2nc(-c3ccc(Br)cc3)cs2)CC1
92.1 | CCOc1ccc(-c2nc(-c3ccncc3)no2)cc1OCC
100 | Cc1ccc(NS(=O)(=O)c2ccc3c(c2)CCC(=O)N3)cc1C
100 | COc1ccc(OC)c(-c2nnc3n2N=C(c2ccc(OC)c(OC)c2)CS3)c1
89.8 | Cc1cc2c(s1)c1cnn(Cc3ccccc3F)c(=O)c1n2C
6.46 | CN(C)C1=C(Cl)C(=O)N(c2ccc(Cl)c(Cl)c2)C1=O
100 | Cc1cc(C)n(-c2nc(NCCCO)c3c4c(sc3n2)CCCC4)n1
100 | N#Cc1ccccc1CSc1nc2ncc(Br)cc2[nH]1
100 | CCc1oc2ccccc2c1C(=O)c1cc(Br)c(O)c(Br)c1
100 | COc1ccc(C2CC(c3ccccc3)=NN2c2ccc(S(N)(=O)=O)cc2)cc1 (stereo not given)
100 | O=c1[nH]c(SCc2ccc(Cl)cc2)nc2c1CCC2
